Measurements as given in patent publication US20110207926A1, “NOVEL DIHYDROTRIAZINE DERIVATIVE” (HAMARI CHEMICALS, LTD., priority 2008, published 2011).
Values after ≈ are worked out from the molar mass of the structure shown. Where two headings read alike, the source gives them in different places.

Legend:
Experiment in all cases: Bactericidal activity test (MBC measurement)
S. aureus ATCC 6538 = assay type: cell-based, Staphylococcus aureus
Method: (§1) Each strain was cultured in Trypticase Soy agar medium for 18 to 20 hr, suspended in 0.1% peptone saline, and prepared to OD 600 nm, 1.0 McFarland. The suspension was further diluted with 0.1% peptone saline to give a test bacteria solution (targeted value; 2×10^7 CFU/mL).
(§2) At 0.5, 1 and 3 min from the start of the reaction, a part of the reaction mixture was sampled and mixed with an equal amount of a neutralizing agent (10% Tween 80, 3% lecithin/aqueous solution) to terminate the bactericidal reaction. The reaction mixture was inoculated to a 96 well microplate dispensed with 180 μL of Tripticase Soy liquid medium in advance, and statically cultured at 37° C. for 20 to 24 hr. Thereafter, the presence or absence of growth was visually evaluated, and the minimum concentration at which growth was not observed was taken as the minimal bactericidal concentration (MBC value) of each action time. The numerical values in the Tables show MBC, the unit is μg/mL, S. aureus means Staphylococcus aureus, MRSA means methicillin-resistant Staphylococcus aureus, E. coli means Escherichia coli, and P. aeruginosa means Pseudomonas aeruginosa.

MRSA ATCC 33591 = assay type: cell-based, methicillin-resistant Staphylococcus aureus
Method: as §1, §2

P. aeruginosa ATCC 27853 = assay type: cell-based, Pseudomonas aeruginosa
Method: as §1, §2

P. aeruginosa PAO-1 = assay type: cell-based, Pseudomonas aeruginosa
Method: as §1, §2

E. coli ATCC 25922 = assay type: cell-based, Escherichia coli
Method: as §1, §2

[1] = S. aureus ATCC 6538, action time 0.5 min
[2] = S. aureus ATCC 6538, action time 1 min
[3] = MRSA ATCC 33591, action time 0.5 min
[4] = MRSA ATCC 33591, action time 1 min
[5] = MRSA ATCC 33591, action time 3 min
[6] = P. aeruginosa ATCC 27853, action time 0.5 min
[7] = Staphylococcus aureus, ATCC6538, 0.5 min, S. aureus ATCC 6538, action time 0.5 min, read-out: MBC
[8] = Staphylococcus aureus, ATCC6538, 1 min, S. aureus ATCC 6538, action time 1 min, read-out: MBC
[9] = Staphylococcus aureus, ATCC6538, 0.05 h, S. aureus ATCC 6538, action time 3 min, read-out: MBC
[10] = Staphylococcus aureus, 0.5 min, MRSA ATCC 33591, action time 0.5 min, read-out: MBC
[11] = Staphylococcus aureus, 1 min, MRSA ATCC 33591, action time 1 min, read-out: MBC
[12] = Staphylococcus aureus, 0.05 h, MRSA ATCC 33591, action time 3 min, read-out: MBC
[13] = Escherichia coli, ATCC25922, 0.5 min, E. coli ATCC 25922, action time 0.5 min, read-out: MBC
[14] = Escherichia coli, ATCC25922, 1 min, E. coli ATCC 25922, action time 1 min, read-out: MBC
[15] = Escherichia coli, ATCC25922, 0.05 h, E. coli ATCC 25922, action time 3 min, read-out: MBC
[16] = Pseudomonas aeruginosa, ATCC27853, 0.5 min, P. aeruginosa ATCC 27853, action time 0.5 min, read-out: MBC
[17] = Pseudomonas aeruginosa, ATCC27853, 1 min, P. aeruginosa ATCC 27853, action time 1 min, read-out: MBC
[18] = Pseudomonas aeruginosa, ATCC27853, 0.05 h, P. aeruginosa ATCC 27853, action time 3 min, read-out: MBC
[19] = Pseudomonas aeruginosa, PAO1, 0.5 min, P. aeruginosa PAO-1, action time 0.5 min, read-out: MBC
[20] = Pseudomonas aeruginosa, PAO1, 1 min, P. aeruginosa PAO-1, action time 1 min, read-out: MBC
[21] = Pseudomonas aeruginosa, PAO1, 0.05 h, P. aeruginosa PAO-1, action time 3 min, read-out: MBC

Compound	MBC (S. aureus ATCC 6538; [7]) [µg/mL]	MBC (S. aureus ATCC 6538; [8]) [µg/mL]	MBC (S. aureus ATCC 6538; [9]) [µg/mL]	MBC (MRSA ATCC 33591; [10]) [µg/mL]	MBC (MRSA ATCC 33591; [11]) [µg/mL]	MBC (MRSA ATCC 33591; [12]) [µg/mL]	MBC (E. coli ATCC 25922; [13]) [µg/mL]	MBC (E. coli ATCC 25922; [14]) [µg/mL]	MBC (E. coli ATCC 25922; [15]) [µg/mL]	MBC (P. aeruginosa ATCC 27853; [16]) [µg/mL]	MBC (P. aeruginosa ATCC 27853; [17]) [µg/mL]	MBC (P. aeruginosa ATCC 27853; [18]) [µg/mL]	other results
1,6-dihydro-6,6-dimethyl-N^4-decyl-N^2-benzyl-N^2-methyl-1,3,5-triazine-2,4-diamine gluconate [Example 3]													MBC (S. aureus ATCC 6538; [1]): 25 µg/mL; MBC (S. aureus ATCC 6538; [2]): 25 µg/mL; MBC (MRSA ATCC 33591; [3]): 25 µg/mL; MBC (MRSA ATCC 33591; [4]): 25 µg/mL; MBC (MRSA ATCC 33591; [5]): 25 µg/mL; MBC (P. aeruginosa ATCC 27853; [6]): 25 µg/mL; MBC (P. aeruginosa ATCC 27853; P. aeruginosa ATCC 27853, action time 1 min): 25 µg/mL; MBC (P. aeruginosa ATCC 27853; P. aeruginosa ATCC 27853, action time 3 min): 25 µg/mL; MBC (P. aeruginosa PAO-1; P. aeruginosa PAO-1, action time 0.5 min): 25 µg/mL; MBC (P. aeruginosa PAO-1; P. aeruginosa PAO-1, action time 1 min): 25 µg/mL; MBC (P. aeruginosa PAO-1; P. aeruginosa PAO-1, action time 3 min): 25 µg/mL
CC(=O)O.CCCCCCCCN(C)C1=NC(C)(C)NC(NCc2ccc(Cl)c(Cl)c2)=N1 [Example 2, N^4-octyl-N^4-methyl-1,6-dihydro-6,6-dimethyl-N^2— (3,4-dichlorobenzyl)-1,3,5-triazine-2,4-diamine acetate]	25	25	12.5	25	25	12.5	12.5	6.25	6.25	25	25	12.5	MBC (P. aeruginosa PAO-1; [19]): 25 µg/mL; MBC (P. aeruginosa PAO-1; [20]): 25 µg/mL; MBC (P. aeruginosa PAO-1; [21]): 12.5 µg/mL
CC(=O)O.CCCCCCCCCNC1=NC(C)(C)NC(N(C)Cc2ccccc2)=N1 [Example 4, 1,6-dihydro-6,6-dimethyl-N^4-nonyl-N^2-benzyl-N^2-methyl-1,3,5-triazine-2,4-diamine acetate]	100			25			12.5			25			MBC (P. aeruginosa PAO-1; [19]): 25 µg/mL
CC(=O)O.CCCCCCCCN(C)C1=NC(C)(C)NC(N(C)Cc2ccccc2)=N1 [Example 6, N^4-octyl-N^4-methyl-1,6-dihydro-6,6-dimethyl-N^2-benzyl-N^2-methyl-1,3,5-triazine-2,4-diamine acetate]	> 200			200			25			25			MBC (P. aeruginosa PAO-1; [19]): 25 µg/mL
CCCCCCCCCCCCNC1=NC(N2CCOCC2)=NCN1 [Example 8, 1,6-dihydro-N-dodecyl-4-(morpholin-4-yl)-1,3,5-triazine-2-amine]	37.5 (≈ 107 µM)	25 (≈ 71.1 µM)	9.4 (≈ 26.7 µM)	37.5 (≈ 107 µM)	18.8 (≈ 53.5 µM)	6.3 (≈ 17.9 µM)	18.8 (≈ 53.5 µM)	12.5 (≈ 35.6 µM)	9.4 (≈ 26.7 µM)	12.5 (≈ 35.6 µM)	12.5 (≈ 35.6 µM)	9.4 (≈ 26.7 µM)	
CC(=O)O.CCCCCCCCCCCCNC1=NC(N2CCN(C)CC2)=NC(C)(C)N1 [Example 10, N-dodecyl-6,6-dimethyl-4-(4-methylpiperazin-1-yl)-1,6-dihydro-1,3,5-triazine-2-amine acetate]	75	50	12.5	50	50	12.5	25	25	25	25	18.8	18.8	
CC(=O)O.CCCCCCCCCCNC1=NC(N2CCCCC2)=NC(C)(C)N1 [Example 11, N-decyl-6,6-dimethyl-4-(piperidin-1-yl)-1,6-dihydro-1,3,5-triazine-2-amine acetate]	50	37.5	25	75	62.5	31.3	18.8	18.8	18.8	25	25	18.8	
CCCCCCCCCCNC1=NC(N2Cc3ccccc3C2)=NC(C)(C)N1 [Example 12, N-decyl-4-(1,3-dihydro-2H-isoindol-2-yl)-6,6-dimethyl-1,6-dihydro-1,3,5-triazine-2-amine]	25 (≈ 65.2 µM)	18.8 (≈ 49 µM)	4.7 (≈ 12.3 µM)	25 (≈ 65.2 µM)	12.5 (≈ 32.6 µM)	6.3 (≈ 16.4 µM)	18.8 (≈ 49 µM)	18.8 (≈ 49 µM)	15.7 (≈ 40.9 µM)	37.5 (≈ 97.8 µM)	37.5 (≈ 97.8 µM)	18.8 (≈ 49 µM)	
CC(=O)O.CCCCCCCCNC1=NC(C)(C)NC(N(CC)Cc2ccccc2)=N1 [Example 13, 1,6-dihydro-6,6-dimethyl-N^4-octyl-N^2-benzyl-N^2-ethyl-1,3,5-triazine-2,4-diamine acetate]	50	25	18.8	62.5	37.5	18.8	25	18.8	12.5	18.8	18.8	18.8	
CCCCCCCCNC1=NC(C)(C)NC(N(C)CCc2ccccc2)=N1 [Example 14, 1,6-dihydro-6,6-dimethyl-N^4-octyl-N^2-methyl-N^2-(2-phenylethyl)-1,3,5-triazine-2,4-diamine]	75 (≈ 202 µM)	37.5 (≈ 101 µM)	18.8 (≈ 50.6 µM)	62.5 (≈ 168 µM)	31.3 (≈ 84.2 µM)	15.7 (≈ 42.3 µM)	25 (≈ 67.3 µM)	25 (≈ 67.3 µM)	12.5 (≈ 33.6 µM)	25 (≈ 67.3 µM)	18.8 (≈ 50.6 µM)	12.5 (≈ 33.6 µM)	
CCCCCCCCCCNC1=NC(C)(C)NC(N(C)CCC)=N1 [Example 16, 1,6-dihydro-6,6-dimethyl-N^4-decyl-N^2-methyl-N^2-propyl-1,3,5-triazine-2,4-diamine]	75 (≈ 222 µM)	50 (≈ 148 µM)	25 (≈ 74.1 µM)	100 (≈ 296 µM)	37.5 (≈ 111 µM)	18.8 (≈ 55.7 µM)	18.8 (≈ 55.7 µM)	18.8 (≈ 55.7 µM)	9.4 (≈ 27.8 µM)	25 (≈ 74.1 µM)	18.8 (≈ 55.7 µM)	18.8 (≈ 55.7 µM)	
CCCCCCCCCCCNC1=NC(C)(C)NC(N(C)Cc2ccc(N)cc2)=N1.Cl.Cl [Example 17, 1,6-dihydro-6,6-dimethyl-N^4-undecyl-N^2-(4-aminobenzyl)-N^2-methyl-1,3,5-triazine-2,4-diamine dihydrochloride]	25	15.7	7.8	18.8	12.5	6.3	25	18.8	12.5	37.5	18.8	9.4	
CCCCCCCCCCCCCCN(C)C1=NC(C)(C)NC(N)=N1.Cl [Example 18, N^4-tetradecyl-N^4-methyl-1,6-dihydro-6,6-dimethyl-1,3,5-triazine-2,4-diamine hydrochloride]	18.8	12.5	4.7	18.8	9.4	4.7	12.5	12.5	6.3	18.8	12.5	9.4	
CCCCCCCCN(C)C(=N)NC(=N)NCc1ccc(Cl)c(Cl)c1.Cl [Example 28, N^5-octyl-N^5-methyl-N^1-(3,4-dichlorobenzyl)biguanide hydrochloride]	25	12.5	12.5	50	12.5	12.5	6.25	6.25	6.25	25	25	12.5	MBC (P. aeruginosa PAO-1; [19]): 12.5 µg/mL; MBC (P. aeruginosa PAO-1; [20]): 12.5 µg/mL; MBC (P. aeruginosa PAO-1; [21]): 6.25 µg/mL
N=C(NCCCCCCNC(=N)NC(=N)Nc1ccc(Cl)cc1)NC(=N)Nc1ccc(Cl)cc1.O=C(O)[C@H](O)[C@@H](O)[C@H](O)[C@H](O)CO.O=C(O)[C@H](O)[C@@H](O)[C@H](O)[C@H](O)CO [control, chlorhexidine gluconate, reference compound]													MBC (S. aureus ATCC 6538; [1]): >200 µg/mL; MBC (S. aureus ATCC 6538; [2]): >200 µg/mL; MBC (S. aureus ATCC 6538; S. aureus ATCC 6538, action time 3 min): >200 µg/mL; MBC (MRSA ATCC 33591; [3]): >200 µg/mL; MBC (MRSA ATCC 33591; [4]): >200 µg/mL; MBC (MRSA ATCC 33591; [5]): 200 µg/mL; MBC (E. coli ATCC 25922; E. coli ATCC 25922, action time 0.5 min): 100 µg/mL; MBC (P. aeruginosa ATCC 27853; [6]): >200 µg/mL
